The values below come from US10420844B2, “Peptide pharmaceuticals” (Mederis Diabetes LLC, priority 2011, dated 2019).

Non-standard residues stand in square brackets, D forms with d. Residues, ends and D or L forms follow the SMILES beside them. *: point of attachment. GlcA(β-D,1-O-dodecyl) = CCCCCCCCCCCCO[C@@H]1O[C@H](C(=O)*)[C@@H](O)[C@H](O)[C@H]1O; GlcA(β1-O-octyl) = CCCCCCCCO[C@@H]1O[C@H](C(=O)*)[C@@H](O)[C@H](O)[C@H]1O; βGlcA(1-OMe) = CO[C@@H]1O[C@H](C(=O)*)[C@@H](O)[C@H](O)[C@H]1O; Phe(2,4,6-Me3) = Cc1cc(C)c(C[C@H](N)C(=O)O)c(C)c1; Dmt = Cc1cc(O)cc(C)c1C[C@H](N)C(=O)O; Tic = O=C(O)[C@@H]1Cc2ccccc2CN1; Aib = CC(C)(N)C(=O)O; NHBn = c1ccc(CN*)cc1

For the first data set, the target named is T1, mu opioid receptor (Homo sapiens, UniProt P35372).
T1 construct: Cerep SA (contract research organization)
T1 sequence (P35372 whole entry): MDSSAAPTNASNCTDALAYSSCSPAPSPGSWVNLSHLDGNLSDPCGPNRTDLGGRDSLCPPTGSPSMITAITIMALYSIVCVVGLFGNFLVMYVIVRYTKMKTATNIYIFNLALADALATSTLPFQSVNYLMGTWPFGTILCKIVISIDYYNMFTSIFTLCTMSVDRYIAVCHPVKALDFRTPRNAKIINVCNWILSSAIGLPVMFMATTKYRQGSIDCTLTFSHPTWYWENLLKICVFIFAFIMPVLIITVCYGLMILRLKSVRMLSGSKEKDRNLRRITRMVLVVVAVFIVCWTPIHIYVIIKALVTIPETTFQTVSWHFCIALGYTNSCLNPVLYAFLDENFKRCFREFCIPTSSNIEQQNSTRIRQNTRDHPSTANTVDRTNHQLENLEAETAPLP
Kind of data set: mu opioid receptor cellular assay (MOP, agonist and antagonist mode), cAMP readout, Cerep. It counts as cell-based. The following applies: MOP agonist mode and DOP antagonist mode. How it is done:
Compounds were weighed precisely in an amount of approximately 2 mg and assayed in standard cellular assays by the contract research organization Cerep, Inc. (Pullman, Wash.) as executed at their subsidiary, Cerep SA (Le Bois l'Eveque, France). The readout is the amount of cAMP generated in the cells treated with the test compounds, in either agonist or antagonist mode. The assays used were the mu opioid receptor cellular assay (MOP in agonist and antagonist mode), the delta2 opioid receptor cellular assay (DOP in agonist and antagonist mode) and the kappa opioid receptor cellular assay (KOP in agonist and antagonist mode). The assays used are described in Wang, J. B., et al. (1994) FEBS Lett 338: 217-222, Law, P. Y. and Loh, H. H. (1993) Mol Pharmacol 43: 684-693, and Avidor-Reiss, T., et al. (1995) FEBS Lett 361: 70-74. The stimulant for the cells in the DOR antagonist assay was 3×10E-8M DPDPE, a well-accepted DOR literature standard.
For the compound `CO[C@@H]1O[C@H](C(=O)NCCCC[C@H](NC(=O)[C@H](Cc2ccccc2)NC(=O)[C@@H]2Cc3ccccc3CN2C(=O)[C@@H](N)Cc2c(C)cc(O)cc2C)C(=O)NCc2ccccc2)[C@@H](O)[C@H](O)[C@H]1O` [EU-A620, Dmt-Tic-Phe-Lys(C1-glucuronyl)-NHCH2Ph] (H-[Dmt][Tic]FK(βGlcA(1-OMe))-NHBn), the Characterization result is “Pure MOP Ag; pure DOP antag”. On the same count and under the same terms, the same measure for “Dmt-Tic-Phe-D-Lys(C1-glucuronyl)-Aib-NH2 [EU-A615]”: “Pure MOP Ag; pure DOP antag”; for `CO[C@@H]1O[C@H](C(=O)NCCCC[C@H](NC(=O)[C@H](Cc2ccccc2)NC(=O)[C@H](Cc2ccccc2)NC(=O)[C@@H]2Cc3ccccc3CN2C(=O)[C@@H](N)Cc2c(C)cc(O)cc2C)C(N)=O)[C@@H](O)[C@H](O)[C@H]1O` [EU-A189, 2′,6′-dimethyl-L-tyrosyl-L-1,2,3,4-tetrahydroisoquinoline-3-carbonyl-L-phenylalanyl-L-phenylalanys-Nε-(1′-methyl β-D-glucuronyl)-L-lysyl-amide]: “Pure MOP Ag; pure DOP antag”.

On to `CO[C@@H]1O[C@H](C(=O)NCCCC[C@@H](NC(=O)[C@H](Cc2ccccc2)NC(=O)[C@@H]2Cc3ccccc3CN2C(=O)[C@@H](N)Cc2c(C)cc(O)cc2C)C(=O)NCc2ccccc2)[C@@H](O)[C@H](O)[C@H]1O` [EU-A639, Dmt-Tic-Phe-D-Lys(C1-glucuronyl)-NHCH2Ph] (H-[Dmt][Tic]F[dK](βGlcA(1-OMe))-NHBn; N-terminus assumed), for which the Characterization entry is recorded as “Pure MOP Ag; pure DOP antag”. As for “Dmt-Tic-Phe-Phe-Lys(C12-glucuronyl)-NH2 [EU-A190]”, the Characterization result is listed as “Pure MOP Ag; pure DOP antag”.

Regarding `CCCCCCCCO[C@@H]1O[C@H](C(=O)NCCCC[C@H](NC(=O)[C@H](Cc2ccccc2)NC(=O)[C@@H]2Cc3ccccc3CN2C(=O)[C@@H](N)Cc2c(C)cc(O)cc2C)C(N)=O)[C@@H](O)[C@H](O)[C@H]1O` [EU-A180, Dmt-Tic-Phe-Lys(C8-glucuronyl)-NH2] (H-[Dmt][Tic]FK(GlcA(β1-O-octyl))-NH2), the Characterization result is on record as “Pure MOP Ag; pure DOP antag”. As to `CO[C@@H]1O[C@H](C(=O)NCCCC[C@H](NC(=O)[C@H](Cc2ccccc2)NC(=O)[C@@H]2Cc3ccccc3CN2C(=O)[C@@H](N)Cc2c(C)cc(O)cc2C)C(=O)NC(C)(C)C(N)=O)[C@@H](O)[C@H](O)[C@H]1O` [EU-A600, Dmt-Tic-Phe-Lys(C1-glucuronyl)-Aib-NH2] (H-[Dmt][Tic]FK(βGlcA(1-OMe))[Aib]-NH2), the Characterization entry is “Pure MOP Ag; pure DOP antag”.

Staying with this data set, now noted: MOP agonist/antagonist modes.
Turning to `CO[C@@H]1O[C@H](C(=O)NCCCC[C@H](NC(=O)[C@H](Cc2c(C)cc(C)cc2C)NC(=O)[C@@H]2CCCN2C(=O)[C@@H](N)Cc2c(C)cc(O)cc2C)C(N)=O)[C@@H](O)[C@H](O)[C@H]1O` [EU-A101, Dmt-Pro-Tmp-Lys(C1-glucuronyl)-NH2] (H-[Dmt]P[Phe(2,4,6-Me3)]K(βGlcA(1-OMe))-NH2; N-terminus assumed), the Characterization entry is reported as “pure agonist”. For `CO[C@@H]1O[C@H](C(=O)NCCCC[C@@H](NC(=O)[C@@H](N)Cc2c(C)cc(O)cc2C)C(=O)N[C@@H](Cc2c(C)cc(C)cc2C)C(=O)N[C@@H](Cc2ccccc2)C(N)=O)[C@@H](O)[C@H](O)[C@H]1O` [EU-A107, Dmt-D-Lys(C1-glucuronyl)-Tmp-Phe-NH2] (H-[Dmt][dK](βGlcA(1-OMe))[Phe(2,4,6-Me3)]F-NH2; N-terminus assumed), the Characterization result is given as “Agonist”. As for `CCCCCCCCO[C@@H]1O[C@H](C(=O)NCCCC[C@H](NC(=O)[C@H](Cc2c(C)cc(C)cc2C)NC(=O)[C@@H]2CCCN2C(=O)[C@@H](N)Cc2c(C)cc(O)cc2C)C(N)=O)[C@@H](O)[C@H](O)[C@H]1O` [EU-A102, 2′,6′-dimethyl-L-tyrosyl-prolyl-2′,4′,6′-trimethyl-L-phenylalanyl-Nε-(1′-octyl β-D-glucuronyl)-L-lysine amide] (H-[Dmt]P[Phe(2,4,6-Me3)]K(GlcA(β1-O-octyl))-NH2), the Characterization entry is “partial agonist”. On to `CCCCCCCCCCCCO[C@@H]1O[C@H](C(=O)NCCCC[C@H](NC(=O)[C@H](Cc2c(C)cc(C)cc2C)NC(=O)[C@@H]2CCCN2C(=O)[C@@H](N)Cc2c(C)cc(O)cc2C)C(N)=O)[C@@H](O)[C@H](O)[C@H]1O` [EU-A103, Dmt-Pro-Tmp-Lys(C12-glucuronyl)-NH2] (H-[Dmt]P[Phe(2,4,6-Me3)]K(GlcA(β-D,1-O-dodecyl))-NH2; N-terminus assumed), for which the Characterization result is reported as “pure antagonist”.

Tested on in another data set: not listed separately
The data set is described as follows: blood PO4 and Ca levels in rats after a single sc injection. Type of data set: in vivo, rat. The following applies: rat, sc, 80 (PTH, EU-232) or 320 (EU-232), all time points. The source says:
Following the method of Frolik, C.
On to `CC[C@H](C)[C@H](NC(=O)[C@H](CCC(=O)O)NC(=O)[C@H](CO)NC(=O)[C@@H](NC(=O)[C@@H](N)CO)C(C)C)C(=O)N[C@@H](CCC(N)=O)C(=O)N[C@@H](CC(C)C)C(=O)N[C@@H](CCSC)C(=O)N[C@@H](Cc1cnc[nH]1)C(=O)N[C@@H](CC(N)=O)C(=O)N[C@@H](CC(C)C)C(=O)NCC(=O)N[C@@H](CCCCN)C(=O)N[C@@H](Cc1cnc[nH]1)C(=O)N[C@@H](CC(C)C)C(=O)N[C@@H](CC(N)=O)C(=O)N[C@@H](CO)C(=O)N[C@@H](CCSC)C(=O)N[C@@H](CCC(=O)O)C(=O)N[C@@H](CCCN=C(N)N)C(=O)N[C@H](C(=O)N[C@@H](CCC(=O)O)C(=O)N[C@@H](Cc1c[nH]c2ccccc12)C(=O)N[C@@H](CC(C)C)C(=O)N[C@@H](CCCN=C(N)N)C(=O)N[C@@H](CCCCN)C(=O)N[C@@H](CCCCN)C(=O)N[C@@H](CC(C)C)C(=O)N[C@@H](CCC(N)=O)C(=O)N[C@@H](CC(=O)O)C(=O)N[C@H](C(=O)N[C@@H](Cc1cnc[nH]1)C(=O)N[C@@H](CC(N)=O)C(=O)N[C@@H](Cc1ccccc1)C(=O)O)C(C)C)C(C)C` [PTH, reference compound], for which the “blood calcium levels versus control (saline/vehicle)” value is given as “No groups were statistically significantly different from control”.

The data set is the same for the next values; noted with them: rat, single sc injection, 80 mcg; PO4 did not further diminish after 1 hour.
For the compound `CC[C@H](C)[C@H](NC(=O)[C@H](CCC(=O)O)NC(=O)[C@H](CO)NC(=O)[C@@H](NC(=O)[C@@H](N)CO)C(C)C)C(=O)N[C@@H](CCC(N)=O)C(=O)N[C@@H](CC(C)C)C(=O)N[C@@H](CCSC)C(=O)N[C@@H](Cc1cnc[nH]1)C(=O)N[C@@H](CC(N)=O)C(=O)N[C@@H](CC(C)C)C(=O)NCC(=O)N[C@@H](CCCCN)C(=O)N[C@@H](Cc1cnc[nH]1)C(=O)N[C@@H](CC(C)C)C(=O)N[C@@H](CC(N)=O)C(=O)N[C@@H](CO)C(=O)N[C@@H](CCSC)C(=O)N[C@@H](CCC(=O)O)C(=O)N[C@@H](CCCN=C(N)N)C(=O)N[C@H](C(=O)N[C@@H](CCC(=O)O)C(=O)N[C@@H](Cc1c[nH]c2ccccc12)C(=O)N[C@@H](CC(C)C)C(=O)N[C@@H](CCCN=C(N)N)C(=O)N[C@@H](CCCCN)C(=O)N[C@@H](CCCCN)C(=O)N[C@@H](CC(C)C)C(=O)N[C@@H](CCC(N)=O)C(=O)N[C@@H](CC(=O)O)C(=O)N[C@H](C(=O)N[C@@H](Cc1cnc[nH]1)C(=O)N[C@@H](CC(N)=O)C(=O)N[C@@H](Cc1ccccc1)C(=O)O)C(C)C)C(C)C` [PTH, reference compound], the “blood PO4 levels, 80 mcg groups” value was “transient but not statistically significant decrease”.

Tested on in another data set: not given
Experiment: not given
Conditions: in water; cited from earlier work.
Consider `CCCCCCCCCCCCCO[C@@H]1O[C@H](CO)[C@@H](OC2OC(CO)C(O)C(O)C2O)[C@H](O)[C@H]1O` (stereo in doubt) [Tridecyl maltoside], for which the CMC is 0.03 mM. In the case of `CCCCCCCCCCCCCCO[C@@H]1O[C@H](CO)[C@@H](O[C@@H]2O[C@@H](CO)[C@H](O)[C@@H](O)[C@@H]2O)[C@H](O)[C@H]1O` (stereo in doubt) [Tetradecyl maltoside], the CMC is 0.01 mM. For the compound `CCCCCCCCCCO[C@@H]1O[C@H](CO)[C@@H](O[C@H]2O[C@H](CO)[C@@H](O)[C@H](O)[C@H]2O)[C@H](O)[C@H]1O` [Decyl maltoside], the CMC is on record as 1.8 mM. Regarding `CCCCCCCCCCCCO[C@@H]1O[C@H](CO)[C@@H](O[C@H]2O[C@H](CO)[C@@H](O)[C@H](O)[C@H]2O)[C@H](O)[C@H]1O` [Dodecyl-β-D-maltoside], the CMC is 0.17 mM. With `CCCCCCCCO[C@@H]1O[C@H](CO)[C@@H](O[C@H]2O[C@H](CO)[C@@H](O)[C@H](O)[C@H]2O)[C@H](O)[C@H]1O` [Octyl maltoside], the CMC is recorded as 19.5 mM.

With Sucrose dodecanoate, the CMC was 0.3 mM.
